Measurements as given in patent US8211922B2, “1-methylnicotinamide derivatives and formulations for treatment of lipoprotein abnormalities” (Cortria Corporation, priority 2005, dated 2012).
Values joined by “and” are separate entries in the source; they are usually repeats but may differ in a detail not shown here. Equal values may be shown once.

Columns and labels:
[1] = system: dyslipidemic and cardiologic patients; test: Anti-atherogenic effect of MNA after short-term use (2 weeks), plasma lipids in patients; type: in vivo, human; settings: for HDL change: after 2 weeks therapy
Method: The anti-atherogenic effect of MNA was investigated in […] dyslipidemic and cardiologic patients. The enrollment criteria was: high level of TG (˜250 mg/dl) and/or high level of total cholesterol (TC) (≧200 mg/dl). The mean age of the patients was 57.5 (range 37-81 years). The enrolled patients were divided into two groups: dyslipidemic patients (4 patients) and dyslipidemic patients after acute coronary failure (myocardial infarction) (12 patients). The patients were treated with MNA for 2 weeks. The MNA was administered orally, three times a day, one capsule (30 mg MNA) after meal. The 16 patients have finished clinical examination.
The plasma levels of TC, TG, and HDL were measured at baseline and after 2 weeks of therapy. The level of LDL was measured in those cases where it was possible (due to high TG level).
Patient nos. 1-4 were dyslipidemic. Patient nos. 5-16 were dyslipidemic patients after acute coronary failure (myocardial infarction).

[2] = Chemical stability; type: physicochemical
[3] = system: dyslipidemic patients; test: Anti-atherogenic effect of MNA after long term use (13 months), plasma lipids in patients; type: in vivo, human; settings: for HDL % / TG % / TG/HDL % / Total Cholesterol % / LDL %: change vs time 0
Method: The anti-atherogenic effect of MNA was investigated in 2 dyslipidemic patients. The enrollment criteria was: high level of TG (≧250 mg/dl) and/or high level of TC (≧200 mg/dl). The patients were treated with MNA for 13 months. The MNA was administered orally, two times a day (50 mg MNA) after meal.
The plasma levels of TC, TG, and HDL were measured at baseline and during the therapy. The level of LDL was measured in those cases where it was possible (due to high TG level).

[4] = 30 mg MNA orally three times a day, after 2 weeks, individual patients
[5] = 30 mg MNA orally three times a day, after 2 weeks, individual patients nos. 1-16
[6] = change visit 2 vs visit 1, 30 mg MNA orally three times a day, 2 weeks, individual patients nos. 1-16
[7] = change visit 2 vs visit 1, 2 weeks, individual patients
[8] = mean of 16 patients, 30 mg MNA orally three times a day, after 2 weeks
[9] = mean of 16 patients, after 2 weeks
[10] = mean of 16 patients, change visit 2 vs visit 1, 2 weeks
[11] = 2 dyslipidemic patients, 50 mg MNA orally two times a day, 13 months

In the case of 1-methylnicotinamide chloride [MNA], the “Glucose visit 2” value [1, 4] is reported as 152 mg/dl and 81 mg/dl and 89 mg/dl (2×) and 90 mg/dl and 101 mg/dl and 129 mg/dl and 96 mg/dl (2×) and 82 mg/dl and 113 mg/dl and 128 mg/dl and 97 mg/dl and 111 mg/dl, the “LDL visit 2” value [1, 4] is reported as 162 mg/dL and 171 mg/dL and 114 mg/dL and 82 mg/dL and 121 mg/dL and 111 mg/dL and 81 mg/dL and 149 mg/dL and 178 mg/dL and 148 mg/dL and the “Uric Acid visit 2” value [1, 4] is reported as 7.2 mg/dL and 4.4 mg/dL and 8.9 mg/dL and 9.6 mg/dL and 6.6 mg/dL and 5.7 mg/dL and 5.3 mg/dL and 5.31 mg/dL and 5.26 mg/dL and 5.8 mg/dL and 7.33 mg/dL. The “HDL visit 2” value [1, 5] was 40 mg/dl and 41 mg/dl (2×) and 59 mg/dl and 31 mg/dl and 45 mg/dl (3×) and 46 mg/dl and 37 mg/dl and 36 mg/dl and 29 mg/dl and 38 mg/dl and 67 mg/dl and 72 mg/dl and 42 mg/dl, the “Total Cholesterol visit 2” value [1, 5] was 251 mg/dL and 260 mg/dL and 208 mg/dL and 155 mg/dL and 130 mg/dL and 203 mg/dL and 194 mg/dL and 159 mg/dL and 253 mg/dL and 271 mg/dL and 229 mg/dL and 146 mg/dL and 280 mg/dL and 188 mg/dL and 243 mg/dL and 231 mg/dL and the TG/HDL ratio ([1]; after 2 weeks therapy (baseline 9.60)) was 5.25. For the same substance, the HDL change ([1]; group of dyslipidemic patients) was “substantial increase”, the HDL change ([1]; group of dyslipidemic patients after acute coronary failure (myocardial infarction)) was “not observed” and the LDL % ([1]; change visit 2 vs visit 1, 30 mg MNA orally three times a day, 2 weeks, individual patients) was 18.25% and 23.91% and 107.27% and −40.58% and 0.83% and −23.97% and −35.71% and 14.62% and 78.00% and 12.98%. The HDL % [1, 6] was 11.11% and 7.89% and −1.67% and −8.82% and −25.45% and −18.18% and −8.00% and −15.91% and −14.29% (2×) and 9.76% and 0.00% and −22.45% and 31.37% and 36.36% and 71.43%, the “Total Cholesterol %” value [1, 6] was 5.91% and −5.11% and 8.33% and −38.74% and −43.97% and −17.14% and −24.51% and −31.17% and −4.17% and −12.58% and 3.62% and −39.67% and −6.98% and 2.73% and −17.06% and −4.94% and the Glucose % [1, 7] was −8.98% and 2.53% and 7.23% and −25.62% and 5.21% and 17.27% and −19.33% and 0.00% and 9.09% and 18.95% and 8.54% and −10.49% and −1.02% and 4.72%. For the same substance, the “Uric Acid %” value [1, 7] was −16.28% and 2.33% and −38.62% and 37.14% and 6.45% and 0.00% and −23.19% and 0.95% and −2.59% and −1.69% and 21.96%, the TG/HDL % ([1]; change visit 2 vs visit 1, 2 weeks, individual patients nos. 1-16) was −32.29% and −54.61% and −54.01% and −43.95% and −41.63% and −36.79% and −33.19% and −19.29% and −14.21% and −60.02% and −15.08% and −68.96% and −26.10% and −59.00% and −84.18% and −3.72% and the “TG visit 2, Mean Value” [1, 8] was 216 mg/dL and 216.31 mg/dL. For the same substance, the “Total Cholesterol visit 2, Mean Value” [1, 8] was 212 mg/dL and 212.56 mg/dL, the “HDL visit 2, Mean Value” [1, 9] was 44.63 mg/dL and the “TG/HDL visit 2, Mean Value” [1, 9] was 5.25. The “HDL %, Mean Value” [1, 10] was 0.85%, the “TG %, Mean Value” [1, 10] was −47.2% and −47.18% and the “TG/HDL %, Mean Value” [1, 10] was −45.32%. The “Total Cholesterol %, Mean Value” [1, 10] was −14.50%, the “LDL visit 2, Mean Value” ([1]; mean of patients with LDL measured, after 2 weeks) was 131.70 mg/dL and the “LDL %, Mean Value” ([1]; mean of patients with LDL measured, change visit 2 vs visit 1, 2 weeks) was 7.86%. For the same substance, the Chemical stability [2] was “chemically very stable”, the TC level [3, 11] was “reduced significantly” and the TG level [3, 11] was “reduced significantly”. For the same substance, the HDL levels ([3]; 2 dyslipidemic patients, after only a few months of therapy) was “increase”, the TG/HDL ratio ([3]; 2 dyslipidemic patients, long term use) was “reduction” and the TG ([3]; Patient 1, 50 mg MNA orally two times a day, 1.5 months) was 218 mg/dL. It also gave a TG ([3]; Patient 1, 50 mg MNA orally two times a day, 6 months) of 255 mg/dL, a TG ([3]; Patient 1, 50 mg MNA orally two times a day, 12 months) of 315 mg/dL and an HDL ([3]; Patient 1, 1.5 months) of 28.0 mg/dL. The LDL ([3]; Patient 1, 1.5 months) was 81.4 mg/dL, the TG/HDL ([3]; Patient 1, 1.5 months) was 7.79 and the “Total Cholesterol” value ([3]; Patient 1, 1.5 months) was 153 mg/dL. It also gave an HDL ([3]; Patient 1, 6 months) of 38.6 mg/dL, an LDL ([3]; Patient 1, 6 months) of 87.0 mg/dL and a TG/HDL ([3]; Patient 1, 6 months) of 6.61. The “Total Cholesterol” value ([3]; Patient 1, 6 months) was 177 mg/dL, the HDL ([3]; Patient 1, 12 months) was 48.1 mg/dL and the LDL ([3]; Patient 1, 12 months) was 118.0 mg/dL. The TG/HDL ([3]; Patient 1, 12 months) was 6.55, the “Total Cholesterol” value ([3]; Patient 1, 12 months) was 229 mg/dL and the HDL % ([3]; Patient 1, 1.5 months) was −8.79%. The TG % ([3]; Patient 1, 1.5 months) was −77.39%, the TG/HDL % ([3]; Patient 1, 1.5 months) was −75.21% and the “Total Cholesterol %” value ([3]; Patient 1, 1.5 months) was −48.66%. The HDL % ([3]; Patient 1, 6 months) was 25.73%, the TG % ([3]; Patient 1, 6 months) was −73.55% and the TG/HDL % ([3]; Patient 1, 6 months) was −78.96%. For the same substance, the “Total Cholesterol %” value ([3]; Patient 1, 6 months) was −40.60%, the HDL % ([3]; Patient 1, 12 months) was 56.68% and the TG % ([3]; Patient 1, 12 months) was −67.32%. The TG/HDL % ([3]; Patient 1, 12 months) was −79.14%, the “Total Cholesterol %” value ([3]; Patient 1, 12 months) was −23.15% and the TG ([3]; Patient 2, 50 mg MNA orally two times a day, 7 months) was 269 mg/dL. For the same substance, the TG ([3]; Patient 2, 50 mg MNA orally two times a day, 13 months) was 160 mg/dL, the HDL ([3]; Patient 2, 7 months) was 79.0 mg/dL and the LDL ([3]; Patient 2, 7 months) was 128.0 mg/dL. For the same substance, the TG/HDL ([3]; Patient 2, 7 months) was 3.41, the “Total Cholesterol” value ([3]; Patient 2, 7 months) was 261 mg/dL and the HDL ([3]; Patient 2, 13 months) was 70.8 mg/dL. The LDL ([3]; Patient 2, 13 months) was 106.8 mg/dL, the TG/HDL ([3]; Patient 2, 13 months) was 2.26 and the “Total Cholesterol” value ([3]; Patient 2, 13 months) was 210 mg/dL. The HDL % ([3]; Patient 2, 7 months) was 79.55%, the LDL % ([3]; Patient 2, 7 months) was −53.11% and the TG % ([3]; Patient 2, 7 months) was −10.93%. For the same substance, the TG/HDL % ([3]; Patient 2, 7 months) was −50.39%, the “Total Cholesterol %” value ([3]; Patient 2, 7 months) was −28.49% and the HDL % ([3]; Patient 2, 13 months) was 60.91%. For the same substance, the LDL % ([3]; Patient 2, 13 months) was −60.88%, the TG % ([3]; Patient 2, 13 months) was −47.02% and the TG/HDL % ([3]; Patient 2, 13 months) was −67.07%. For the same substance, the “Total Cholesterol %” value ([3]; Patient 2, 13 months) was −42.47%.
